The record followed here is ChEMBL document CHEMBL4354805, “Discovery of MK-8719, a Potent O-GlcNAcase Inhibitor as a Potential Treatment for Tauopathies” (J Med Chem, 2019).

Bounds are passed on as bounds.

The nature of data set [1]: Volume of distribution at steady state in Wistar Han rat at 1 mg/kg, iv or 3 mg/kg, po. Format: ADME, organism-based. The settings on record: in vivo, read-out: Vdss.
The nature of data set [2]: Oral bioavailability in Wistar Han rat at 3 mg/kg. The data set is classed as ADME, organism-based. As to conditions: in vivo.
Data set [3] deals with T1, Protein O-GlcNAcase (Homo sapiens, UniProt O60502).
T1 sequence (O60502 whole entry): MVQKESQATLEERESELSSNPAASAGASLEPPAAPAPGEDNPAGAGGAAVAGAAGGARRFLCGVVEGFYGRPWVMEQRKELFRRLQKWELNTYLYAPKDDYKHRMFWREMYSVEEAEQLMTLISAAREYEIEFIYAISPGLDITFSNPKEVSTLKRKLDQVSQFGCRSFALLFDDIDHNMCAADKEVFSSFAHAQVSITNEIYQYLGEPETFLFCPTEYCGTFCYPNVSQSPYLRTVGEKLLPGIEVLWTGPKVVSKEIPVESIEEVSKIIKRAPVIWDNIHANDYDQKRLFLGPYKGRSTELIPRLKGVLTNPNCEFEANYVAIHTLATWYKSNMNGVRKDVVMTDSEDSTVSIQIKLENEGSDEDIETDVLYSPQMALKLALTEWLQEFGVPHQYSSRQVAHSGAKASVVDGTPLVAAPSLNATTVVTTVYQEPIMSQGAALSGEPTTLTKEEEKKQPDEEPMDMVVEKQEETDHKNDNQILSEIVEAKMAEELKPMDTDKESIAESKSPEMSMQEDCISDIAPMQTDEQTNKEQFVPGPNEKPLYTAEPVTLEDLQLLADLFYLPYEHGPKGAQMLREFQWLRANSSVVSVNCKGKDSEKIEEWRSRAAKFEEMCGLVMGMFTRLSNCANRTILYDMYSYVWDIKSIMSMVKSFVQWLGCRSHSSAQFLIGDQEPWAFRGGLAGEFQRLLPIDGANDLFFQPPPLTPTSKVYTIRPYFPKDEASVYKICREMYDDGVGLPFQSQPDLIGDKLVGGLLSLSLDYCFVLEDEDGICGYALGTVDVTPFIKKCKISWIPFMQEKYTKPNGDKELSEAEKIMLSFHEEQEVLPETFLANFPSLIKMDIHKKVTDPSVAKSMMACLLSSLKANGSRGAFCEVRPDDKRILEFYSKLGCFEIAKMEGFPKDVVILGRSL
Briefly: Inhibition of recombinant human OGA.

Another data set has as its system MDR1. Briefly: Apparent permeability in pig LLC-PK1 cells transfected with MDR1. The data set is classed as ADME, cell-based, Sus scrofa.
Data set [4] can be described thus: Fraction unbound in human plasma at 2.5 uM by equilibrium dialysis. Format: ADME, cell-free.
In data set [5] the target is T2, Protein O-GlcNAcase (Rattus norvegicus, UniProt Q8VIJ5).
T2 sequence (Q8VIJ5 whole entry): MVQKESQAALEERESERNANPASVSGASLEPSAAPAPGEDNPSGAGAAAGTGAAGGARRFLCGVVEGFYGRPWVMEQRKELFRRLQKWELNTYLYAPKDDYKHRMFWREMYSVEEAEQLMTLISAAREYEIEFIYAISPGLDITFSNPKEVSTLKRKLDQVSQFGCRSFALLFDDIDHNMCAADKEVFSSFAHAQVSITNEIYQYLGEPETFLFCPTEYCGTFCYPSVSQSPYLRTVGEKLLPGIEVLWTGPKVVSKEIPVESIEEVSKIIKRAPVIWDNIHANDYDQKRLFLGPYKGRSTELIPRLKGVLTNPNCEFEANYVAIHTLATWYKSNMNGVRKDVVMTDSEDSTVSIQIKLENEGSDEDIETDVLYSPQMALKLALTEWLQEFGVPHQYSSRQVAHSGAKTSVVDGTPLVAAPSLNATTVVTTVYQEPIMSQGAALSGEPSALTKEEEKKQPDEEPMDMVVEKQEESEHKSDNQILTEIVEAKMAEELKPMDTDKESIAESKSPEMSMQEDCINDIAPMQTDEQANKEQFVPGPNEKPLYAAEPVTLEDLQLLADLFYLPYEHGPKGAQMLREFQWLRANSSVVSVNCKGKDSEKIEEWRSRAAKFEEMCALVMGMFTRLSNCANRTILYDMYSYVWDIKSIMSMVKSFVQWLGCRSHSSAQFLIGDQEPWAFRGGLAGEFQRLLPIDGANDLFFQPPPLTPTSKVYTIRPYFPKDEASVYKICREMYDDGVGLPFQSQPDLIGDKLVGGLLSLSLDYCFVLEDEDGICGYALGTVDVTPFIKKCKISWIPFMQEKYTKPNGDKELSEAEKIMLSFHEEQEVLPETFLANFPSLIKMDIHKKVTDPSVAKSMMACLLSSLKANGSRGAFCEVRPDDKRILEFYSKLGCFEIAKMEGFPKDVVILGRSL
Kind of data set: Inhibition of OGA in rat PC12 cells assessed as OGlcNAcylated protein level incubated for 24 hrs by ELISA. Format: cell-based.

The target in data set [6] is T3, Beta-hexosaminidase subunit beta (Homo sapiens, UniProt P07686).
T3 sequence (P07686 whole entry): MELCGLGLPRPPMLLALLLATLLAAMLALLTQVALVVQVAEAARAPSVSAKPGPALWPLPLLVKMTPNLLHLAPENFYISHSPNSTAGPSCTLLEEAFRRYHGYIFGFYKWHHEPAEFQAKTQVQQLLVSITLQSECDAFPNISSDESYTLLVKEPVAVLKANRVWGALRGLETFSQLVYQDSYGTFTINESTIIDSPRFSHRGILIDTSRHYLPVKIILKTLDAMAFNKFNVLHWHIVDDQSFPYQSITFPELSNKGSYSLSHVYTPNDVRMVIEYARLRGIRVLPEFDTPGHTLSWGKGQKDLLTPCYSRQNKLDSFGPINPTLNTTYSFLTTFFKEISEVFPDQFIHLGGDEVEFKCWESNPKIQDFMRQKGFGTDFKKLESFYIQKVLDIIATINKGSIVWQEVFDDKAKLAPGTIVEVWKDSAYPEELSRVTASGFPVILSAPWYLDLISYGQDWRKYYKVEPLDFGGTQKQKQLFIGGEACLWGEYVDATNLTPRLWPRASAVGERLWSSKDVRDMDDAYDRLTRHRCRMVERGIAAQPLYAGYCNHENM
Kind of data set: Inhibition of human beta hexosaminidase assessed as inhibitory constant using 4-methylumbelliferyl N-acetyl-beta-D-glucosaminide dihydrate as substrate measured every 60 sec for 45 mins by fluorescence spectrophotometry.

A short description of data set [7]: Clearance in Wistar Han rat at 1 mg/kg, iv. Format: ADME, organism-based. The settings on record: in vivo.
Data set [8] in a line: Fraction unbound in Wistar Han rat plasma at 2.5 uM by equilibrium dialysis. The data set is classed as ADME, cell-free.
A short description of data set [9]: Half life in Wistar Han rat at 1 mg/kg, iv. Format: ADME, organism-based. The settings on record: in vivo.
Data set [10] can be described thus: AUCN in Wistar Han rat at 3 mg/kg, po. The data set is classed as ADME, organism-based. As to conditions: in vivo.
The target of a further data set is Cytochrome P450 2C9 (Homo sapiens, UniProt P11712). Briefly: Inhibition of CYP2C9 (unknown origin). The data set is classed as ADME.
Cytochrome P450 2C9, sequence (P11712 whole entry): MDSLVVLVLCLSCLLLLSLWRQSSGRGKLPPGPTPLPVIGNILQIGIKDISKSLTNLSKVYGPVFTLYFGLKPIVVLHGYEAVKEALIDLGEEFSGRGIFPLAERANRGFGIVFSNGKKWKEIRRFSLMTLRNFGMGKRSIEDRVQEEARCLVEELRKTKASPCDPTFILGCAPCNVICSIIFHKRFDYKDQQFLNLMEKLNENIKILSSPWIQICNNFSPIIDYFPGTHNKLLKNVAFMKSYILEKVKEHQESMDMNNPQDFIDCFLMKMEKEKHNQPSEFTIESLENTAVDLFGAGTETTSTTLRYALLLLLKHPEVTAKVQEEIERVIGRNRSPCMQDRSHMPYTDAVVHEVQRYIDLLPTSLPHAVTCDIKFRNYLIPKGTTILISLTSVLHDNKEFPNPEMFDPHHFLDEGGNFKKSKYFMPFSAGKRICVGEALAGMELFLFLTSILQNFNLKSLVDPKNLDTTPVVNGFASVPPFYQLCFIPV
Data set [11] can be described thus: Fraction unbound in human plasma. The data set is classed as ADME, cell-free.
Data set [12] can be described thus: Ratio of drug uptake in rat brain to plasma at 3 mg/kg, po measured after 8 hrs. The data set is classed as ADME, organism-based. The settings on record: read-out: BPR.
Data set [13] can be described thus: Drug uptake in rat brain at 3 mg/kg, po measured after 24 hrs. The settings on record: in vivo. Format: ADME, organism-based.
Data set [14] in a line: Drug uptake in rat brain at 3 mg/kg, po measured after 8 hrs. Format: ADME, organism-based. As to conditions: in vivo.
The nature of data set [15]: Ratio of drug uptake in rat brain to plasma at 3 mg/kg, po measured after 24 hrs. Format: ADME, organism-based. The settings on record: read-out: BPR.
For the next data set, the target named is Cytochrome P450 3A4 (Homo sapiens, UniProt P08684). Briefly: Inhibition of CYP3A4 (unknown origin). Format: ADME.
Cytochrome P450 3A4, sequence (P08684 whole entry): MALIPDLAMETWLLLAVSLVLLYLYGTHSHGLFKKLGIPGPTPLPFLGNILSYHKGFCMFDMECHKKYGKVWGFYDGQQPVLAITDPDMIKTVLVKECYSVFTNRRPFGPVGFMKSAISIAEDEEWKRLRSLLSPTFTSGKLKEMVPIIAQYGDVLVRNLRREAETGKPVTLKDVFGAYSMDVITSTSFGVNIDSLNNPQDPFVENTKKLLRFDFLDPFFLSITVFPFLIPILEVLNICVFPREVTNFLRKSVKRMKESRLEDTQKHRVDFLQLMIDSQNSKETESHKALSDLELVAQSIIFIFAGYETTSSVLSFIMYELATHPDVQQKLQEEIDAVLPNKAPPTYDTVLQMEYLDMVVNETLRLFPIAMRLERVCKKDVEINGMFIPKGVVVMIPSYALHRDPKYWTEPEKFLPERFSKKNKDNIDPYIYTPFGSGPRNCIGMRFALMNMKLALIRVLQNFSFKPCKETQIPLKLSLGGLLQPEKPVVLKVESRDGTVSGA
Data set [16] has as its target T4, Nuclear receptor subfamily 1 group I member 2 (Homo sapiens, UniProt O75469).
T4 sequence (O75469 whole entry): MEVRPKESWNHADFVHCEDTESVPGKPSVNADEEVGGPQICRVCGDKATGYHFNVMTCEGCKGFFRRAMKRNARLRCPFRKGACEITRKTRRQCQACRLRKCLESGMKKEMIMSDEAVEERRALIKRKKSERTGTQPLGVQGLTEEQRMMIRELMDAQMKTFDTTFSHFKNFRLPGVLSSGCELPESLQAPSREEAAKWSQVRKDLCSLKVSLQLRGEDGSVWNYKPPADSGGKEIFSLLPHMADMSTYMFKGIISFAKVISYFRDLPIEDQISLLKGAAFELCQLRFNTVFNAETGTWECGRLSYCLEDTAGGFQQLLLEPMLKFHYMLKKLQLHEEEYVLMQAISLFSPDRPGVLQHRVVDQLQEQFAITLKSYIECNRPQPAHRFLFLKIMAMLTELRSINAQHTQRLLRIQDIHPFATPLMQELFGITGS
Briefly: Activation of PXR (unknown origin) assessed as CYP3A4 induction.

Data set [17] in a line: Half life in Wistar Han rat at 2 mg/kg, iv. The data set is classed as ADME, organism-based. As to conditions: in vivo.
Data set [18] is described as follows: Tmax in rat brain at 10 mg/kg, po measured upto 24 hrs. The data set is classed as ADME, organism-based.
Data set [19] is described as follows: Volume of distribution at steady state in Wistar Han rat at 2 mg/kg, iv or 10 mg/kg, po. Format: ADME, organism-based. As to conditions: in vivo, read-out: Vdss.
Data set [20] can be described thus: AUC (0 to 24 hrs) in rat brain at 10 mg/kg, po measured upto 24 hrs. The settings on record: in vivo. The data set is classed as ADME, organism-based. Also noted: dose 10 mg/kg, time < 24 hr, route oral.
The next data set concerns the target Cytochrome P450 2D6 (Homo sapiens, UniProt P10635). Briefly: Inhibition of CYP2D6 (unknown origin). Format: ADME.
The nature of data set [21]: Ratio of Cmax in brain to plasma in rat at 10 mg/kg, po. Format: ADME, organism-based.
A short description of data set [22]: Clearance in Wistar Han rat at 2 mg/kg, iv. Format: ADME, organism-based. As to conditions: in vivo.
Data set [23] can be described thus: AUCN in Wistar Han rat at 10 mg/kg, po. The data set is classed as ADME, organism-based. The settings on record: in vivo.
Data set [24] in a line: Oral bioavailability in Wistar Han rat at 10 mg/kg. Format: ADME, organism-based. The settings on record: in vivo.
For data set [25], the target named is Sodium channel protein type 5 subunit alpha (Homo sapiens, UniProt Q14524). Kind of data set: Inhibition of Nav1.5 (unknown origin).
For data set [26], the target named is Voltage-gated inwardly rectifying potassium channel KCNH2 (Homo sapiens, UniProt Q12809). Briefly: Displacement of MK-0499 from human ERG.
Voltage-gated inwardly rectifying potassium channel KCNH2, sequence (Q12809 whole entry): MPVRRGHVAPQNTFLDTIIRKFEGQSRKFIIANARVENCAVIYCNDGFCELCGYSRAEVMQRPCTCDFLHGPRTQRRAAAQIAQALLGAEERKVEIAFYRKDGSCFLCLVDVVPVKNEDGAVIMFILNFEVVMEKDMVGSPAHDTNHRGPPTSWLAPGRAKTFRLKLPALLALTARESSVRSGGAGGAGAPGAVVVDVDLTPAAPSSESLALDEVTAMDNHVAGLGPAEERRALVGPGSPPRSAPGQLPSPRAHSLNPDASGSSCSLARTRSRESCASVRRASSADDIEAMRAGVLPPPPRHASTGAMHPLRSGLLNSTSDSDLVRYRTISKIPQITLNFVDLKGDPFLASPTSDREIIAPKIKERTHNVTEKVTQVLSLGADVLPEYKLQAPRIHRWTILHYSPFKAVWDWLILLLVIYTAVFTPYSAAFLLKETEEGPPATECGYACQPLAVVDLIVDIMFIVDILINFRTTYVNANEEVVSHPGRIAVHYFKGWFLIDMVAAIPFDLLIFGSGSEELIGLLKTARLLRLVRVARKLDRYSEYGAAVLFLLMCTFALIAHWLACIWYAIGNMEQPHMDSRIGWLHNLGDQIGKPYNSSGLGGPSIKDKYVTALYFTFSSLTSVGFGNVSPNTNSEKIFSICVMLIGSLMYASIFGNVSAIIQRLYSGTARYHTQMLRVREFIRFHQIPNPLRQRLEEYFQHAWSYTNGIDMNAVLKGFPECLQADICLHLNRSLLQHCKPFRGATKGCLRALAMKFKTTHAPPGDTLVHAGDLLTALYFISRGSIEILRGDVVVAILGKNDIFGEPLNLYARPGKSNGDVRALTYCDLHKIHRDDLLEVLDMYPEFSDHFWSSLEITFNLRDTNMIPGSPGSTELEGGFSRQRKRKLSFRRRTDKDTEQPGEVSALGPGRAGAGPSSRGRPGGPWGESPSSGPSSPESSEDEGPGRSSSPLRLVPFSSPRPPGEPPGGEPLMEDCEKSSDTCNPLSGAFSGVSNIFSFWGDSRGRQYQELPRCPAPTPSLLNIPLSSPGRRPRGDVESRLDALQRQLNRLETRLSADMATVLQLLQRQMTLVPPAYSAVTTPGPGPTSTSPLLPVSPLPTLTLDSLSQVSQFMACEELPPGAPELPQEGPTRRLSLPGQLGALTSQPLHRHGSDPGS
Data set [27] addresses Voltage-dependent L-type calcium channel subunit alpha-1C (Homo sapiens, UniProt Q13936). Briefly: Inhibition of Cav1.2 (unknown origin).

Voltage-dependent L-type calcium channel subunit alpha-1C, sequence (Q13936 whole entry): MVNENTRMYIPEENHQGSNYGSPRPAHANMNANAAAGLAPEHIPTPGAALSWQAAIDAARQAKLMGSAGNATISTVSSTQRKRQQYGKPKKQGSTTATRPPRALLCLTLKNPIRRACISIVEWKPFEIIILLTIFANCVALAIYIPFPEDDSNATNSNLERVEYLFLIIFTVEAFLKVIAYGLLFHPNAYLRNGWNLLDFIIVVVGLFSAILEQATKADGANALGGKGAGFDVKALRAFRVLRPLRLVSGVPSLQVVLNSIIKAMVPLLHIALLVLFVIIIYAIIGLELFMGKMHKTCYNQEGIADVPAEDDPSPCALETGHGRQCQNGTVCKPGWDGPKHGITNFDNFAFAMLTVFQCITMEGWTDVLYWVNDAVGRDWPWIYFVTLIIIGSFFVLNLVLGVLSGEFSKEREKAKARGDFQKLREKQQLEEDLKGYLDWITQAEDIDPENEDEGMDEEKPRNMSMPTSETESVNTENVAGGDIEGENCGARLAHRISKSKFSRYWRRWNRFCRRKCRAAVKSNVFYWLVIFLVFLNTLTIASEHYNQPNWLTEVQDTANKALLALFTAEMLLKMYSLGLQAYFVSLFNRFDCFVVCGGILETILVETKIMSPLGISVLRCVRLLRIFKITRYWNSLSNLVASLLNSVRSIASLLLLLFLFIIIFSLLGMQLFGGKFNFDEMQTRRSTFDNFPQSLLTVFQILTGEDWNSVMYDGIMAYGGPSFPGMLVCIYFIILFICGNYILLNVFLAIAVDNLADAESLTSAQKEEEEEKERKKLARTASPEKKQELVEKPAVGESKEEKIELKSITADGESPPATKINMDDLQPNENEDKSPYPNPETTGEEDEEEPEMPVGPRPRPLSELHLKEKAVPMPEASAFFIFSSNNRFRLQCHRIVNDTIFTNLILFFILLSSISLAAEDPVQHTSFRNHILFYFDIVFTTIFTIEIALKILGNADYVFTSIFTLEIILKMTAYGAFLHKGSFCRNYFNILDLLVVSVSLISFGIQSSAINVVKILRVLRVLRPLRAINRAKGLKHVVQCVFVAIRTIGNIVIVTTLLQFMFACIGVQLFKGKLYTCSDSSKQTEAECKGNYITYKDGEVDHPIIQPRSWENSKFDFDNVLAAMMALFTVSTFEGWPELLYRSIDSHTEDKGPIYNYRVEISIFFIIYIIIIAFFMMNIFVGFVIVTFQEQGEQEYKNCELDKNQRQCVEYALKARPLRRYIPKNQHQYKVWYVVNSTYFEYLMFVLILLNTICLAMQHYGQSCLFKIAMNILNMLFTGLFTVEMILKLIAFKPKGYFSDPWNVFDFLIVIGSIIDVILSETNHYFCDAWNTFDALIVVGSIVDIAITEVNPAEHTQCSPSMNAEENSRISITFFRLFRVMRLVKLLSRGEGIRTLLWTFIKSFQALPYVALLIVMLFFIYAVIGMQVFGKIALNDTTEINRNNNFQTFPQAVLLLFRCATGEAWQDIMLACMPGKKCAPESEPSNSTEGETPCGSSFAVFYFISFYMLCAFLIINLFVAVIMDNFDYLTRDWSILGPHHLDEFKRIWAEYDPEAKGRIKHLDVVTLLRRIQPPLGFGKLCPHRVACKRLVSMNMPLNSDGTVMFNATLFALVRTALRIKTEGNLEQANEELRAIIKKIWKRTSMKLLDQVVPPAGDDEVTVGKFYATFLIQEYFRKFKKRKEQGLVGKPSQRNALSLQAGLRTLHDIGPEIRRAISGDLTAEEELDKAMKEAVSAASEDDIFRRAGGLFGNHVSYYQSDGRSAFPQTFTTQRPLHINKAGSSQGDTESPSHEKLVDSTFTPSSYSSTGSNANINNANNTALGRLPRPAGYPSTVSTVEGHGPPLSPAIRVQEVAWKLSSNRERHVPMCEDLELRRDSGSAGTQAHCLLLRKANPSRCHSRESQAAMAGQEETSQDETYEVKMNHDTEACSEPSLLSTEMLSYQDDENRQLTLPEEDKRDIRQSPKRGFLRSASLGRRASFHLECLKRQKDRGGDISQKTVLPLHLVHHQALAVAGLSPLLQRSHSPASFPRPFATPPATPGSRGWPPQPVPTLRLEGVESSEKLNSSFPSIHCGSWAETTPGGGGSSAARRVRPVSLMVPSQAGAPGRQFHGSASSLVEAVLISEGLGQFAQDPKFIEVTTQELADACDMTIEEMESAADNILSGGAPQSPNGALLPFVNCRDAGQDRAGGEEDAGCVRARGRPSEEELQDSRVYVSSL
Cytochrome P450 2D6, sequence (P10635 whole entry): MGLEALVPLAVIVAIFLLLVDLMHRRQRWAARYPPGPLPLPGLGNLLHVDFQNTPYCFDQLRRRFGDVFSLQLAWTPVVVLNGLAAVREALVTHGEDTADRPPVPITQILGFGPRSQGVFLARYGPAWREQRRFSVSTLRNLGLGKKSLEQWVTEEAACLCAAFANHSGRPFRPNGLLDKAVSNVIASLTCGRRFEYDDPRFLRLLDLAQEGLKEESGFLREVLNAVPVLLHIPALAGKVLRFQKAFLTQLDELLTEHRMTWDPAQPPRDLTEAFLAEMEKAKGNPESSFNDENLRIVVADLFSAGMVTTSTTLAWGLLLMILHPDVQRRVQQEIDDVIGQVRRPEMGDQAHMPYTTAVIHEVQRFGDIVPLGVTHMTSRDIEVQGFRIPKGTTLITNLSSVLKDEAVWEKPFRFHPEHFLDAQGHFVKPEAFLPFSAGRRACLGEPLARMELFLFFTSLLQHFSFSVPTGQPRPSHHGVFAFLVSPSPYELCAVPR

For `CNC1=N[C@@H]2[C@H](F)[C@H](O)[C@@H](CF)O[C@@H]2S1`, in [1], the Vd came out at 0.85 L/kg. Moreover, the bioavailability in [2] is 60.5%. For the same compound, the Ki is 0.035 µM at Protein O-GlcNAcase [3] and over 10 µM in data set [6]. For the same compound, the Papp in the data set with MDR1 was 26 ×10⁻⁶ cm/s. Moreover, the fraction unbound at 2.5 µM in data set [4] and in data set [8] was over 0.99 throughout. Moreover, on Protein O-GlcNAcase [5], the EC50 is 0.328 µM. The compound also gave a clearance in data set [7] of 14.4 mL/min/kg. In data set [9], this compound had a half-life of 1.18 h. In data set [10], this compound yielded an AUC/dose of 2.96 µM·kg·h/mg.

With `CCNC1=N[C@@H]2[C@@H](O)[C@H](O)[C@@H](CO)O[C@@H]2S1`, the IC50 was over 50 µM against Cytochrome P450 2C9; over 50 µM against Cytochrome P450 3A4; over 50 µM at Cytochrome P450 2D6; over 30 µM in [25]; over 30 µM in data set [26]; over 30 µM in data set [27]. In data set [11], the fraction unbound turned out to be 0.76. Moreover, the Kp at 8 h in data set [12] was found to be 0.94. In addition, the Drug uptake is given as 0.051 nmol/g in data set [13] and 0.185 nmol/g in data set [14]. The Kp at 24 h in [15] is over 2.7. The EC50 in data set [16] was over 30 µM. For the same compound, the Papp with MDR1 is at most 1 ×10⁻⁶ cm/s. In [17], this compound had a half-life of 1.4 h. Moreover, in data set [18], the Tmax worked out at 8 h. In addition, the figures for the fraction unbound at 2.5 µM in [4] and in data set [8] were 0.76 and 0.73, respectively. Further, in data set [19], the Vd came to 1.5 L/kg. This compound returned an AUC in data set [20] of 1.14 nM·h/g. For the same compound, the Ki in data set [6] is over 10 µM. Also, in data set [21], the Kp was 0.1. The compound also gave a clearance in [22] of 25 mL/min/kg. Besides, the AUC/dose in [23] came to 0.8 µM·kg·h/mg. This compound came in with a bioavailability in [24] of 30%.
